Reference: PubChem BioAssay AID310 (DTP/NCI, 2004)
Where “and” joins values, the source holds several entries; their conditions need not be identical. Identical values can stand only once. Inconclusive results are not listed.

System: C3AKF1 mice, osteogenic sarcoma HE10734 s.c., tumor weight T/C
Assay: NCI In Vivo Anticancer Drug Screen. Data for tumor model Osteogenic Sarcoma HE 10734 (subcutaneous) in C3AKF1 (CHKRF1) mice
Conditions: endpoint: mean tumor weight, schedule: Q01DX010 (ip), higher = larger tumour
Method: The antitumor activity of compounds was measured in mice bearing transplantable tumors. Survival or tumor size were measured and the results are expressed as the measurement made in the treated group (T) divided by the measurement made in the vehicle treated control group (C). The tumor model used in this assay is Osteogenic Sarcoma HE 10734 (subcutaneous) in C3AKF1 (CHKRF1) mice

[1] = dose: 22.0 mg/kg/injection, vehicle: carboxymethylcellulose (CMC)
[2] = dose: 12.0 mg/kg/injection, vehicle: saline
[3] = dose: 20.0 mg/kg/injection, vehicle: saline

With `CCCCCCCCCCCCCCCCC(C(=O)O)C(O)(CC(=O)O)C(=O)O` (stereo not given) the T/C [1] was 100 % of control and the T/C (dose: 35.0 mg/kg/injection, vehicle: carboxymethylcellulose (CMC)) was 68 % of control.

With `CSc1ncc(Br)c(Sc2nc(N)nc3nc[nH]c23)n1` the T/C (dose: 1.5 mg/kg/injection, vehicle: carboxymethylcellulose (CMC)) was 103 % of control, the T/C (dose: 3.0 mg/kg/injection, vehicle: carboxymethylcellulose (CMC)) was 87 % of control and the T/C (dose: 6.0 mg/kg/injection, vehicle: carboxymethylcellulose (CMC)) was 55 % of control. For the same compound, the T/C (dose: 12.0 mg/kg/injection, vehicle: carboxymethylcellulose (CMC)) was 77 % of control.

For `CCCNC(=NC)c1ccc(NC(=O)c2ccc(C(=O)Nc3ccc(C(=NC)NCCC)cc3)cc2)cc1`, the T/C (dose: 3.0 mg/kg/injection, vehicle: saline) was 91 % of control, the T/C (dose: 6.0 mg/kg/injection, vehicle: saline) was 46 % of control and the T/C [2] was 46 % of control.

`O=P(N1CC1)(N1CC1)N1CC1` was tested, and the T/C (dose: 0.5 mg/kg/injection, vehicle: carboxymethylcellulose (CMC)) was 104 % of control, the T/C (dose: 1.0 mg/kg/injection, vehicle: carboxymethylcellulose (CMC)) was 76 % of control and the T/C (dose: 2.0 mg/kg/injection, vehicle: carboxymethylcellulose (CMC)) was 67 % of control. For the same compound, the T/C (dose: 4.0 mg/kg/injection, vehicle: carboxymethylcellulose (CMC)) was 41 % of control.

With `NC(CCSCc1ccc(N(CCCl)CCCl)cc1)C(=O)O` (stereo not given) the T/C (dose: 4.5 mg/kg/injection, vehicle: saline) was 74 % of control, the T/C (dose: 9.0 mg/kg/injection, vehicle: saline) was 105 % of control and 118 % of control and the T/C (dose: 54.0 mg/kg/injection, vehicle: saline) was 39 % of control.

In the case of `CN(C)Nc1ncnc2nc[nH]c12`, the T/C [3] is reported as 84 % of control, the T/C (dose: 40.0 mg/kg/injection, vehicle: saline) is reported as 72 % of control and the T/C (dose: 80.0 mg/kg/injection, vehicle: saline) is reported as 38 % of control.

`CN(C)[C@@H]1C(=O)C(C(=O)NCN(CCCl)CCCl)=C(O)[C@@]2(O)C(=O)C3=C(O)c4c(O)cccc4[C@@](C)(O)[C@H]3C[C@@H]12` was tested, and the T/C (dose: 8.9 mg/kg/injection, vehicle: saline) was 105 % of control, the T/C (dose: 13.0 mg/kg/injection, vehicle: saline) was 84 % of control and the T/C [3] was 94 % of control. For the same compound, the T/C (dose: 30.0 mg/kg/injection, vehicle: saline) was 52 % of control and 69 % of control and the T/C (dose: 44.0 mg/kg/injection, vehicle: saline) was 53 % of control.

For `CN(N=O)C(N)=O`, the T/C (dose: 10.0 mg/kg/injection, vehicle: carboxymethylcellulose (CMC)) was 47 % of control and 55 % of control, the T/C (dose: 16.0 mg/kg/injection, vehicle: carboxymethylcellulose (CMC)) was 34 % of control and 39 % of control and the T/C (dose: 25.0 mg/kg/injection, vehicle: carboxymethylcellulose (CMC)) was 38 % of control.

`CN(C)CCCN1c2ccccc2Sc2ccc(C(F)(F)F)cc21` was tested, and the T/C [2] was 90 % of control and the T/C (dose: 25.0 mg/kg/injection, vehicle: saline) was 90 % of control.

For `CN(C)c1ccc(/C=C\c2ccnc3ccccc23)cc1`, the T/C (dose: 2.5 mg/kg/injection, vehicle: carboxymethylcellulose (CMC)) was 50 % of control, the T/C (dose: 14.0 mg/kg/injection, vehicle: carboxymethylcellulose (CMC)) was 68 % of control and the T/C [1] was 44 % of control. The T/C (dose: 50.0 mg/kg/injection, vehicle: carboxymethylcellulose (CMC)) was 48 % of control, the T/C (dose: 75.0 mg/kg/injection, vehicle: carboxymethylcellulose (CMC)) was 27 % of control and the T/C (dose: 100.0 mg/kg/injection, vehicle: carboxymethylcellulose (CMC)) was 67 % of control.
